# Legend:
# [1] = system: human mammary carcinoma (MX-1); assay: Single dose efficacy in MX-1 breast tumor xenograft mouse model; format: in vivo, nude mice; conditions: day 31; for Mean TV ± SD: single dose i.v. 20 mg/kg (conjugate as 7-ethyl-10-hydroxycamptothecin equivalent)
# Protocol: Following at least one week of acclimation, tumors were established by implanting small tumor fragments from donor mice into a single subcutaneous site, on the left auxiliary flank region of nude mice. The tumor implantation site was observed twice weekly and measured once palpable. The tumor volume for each mouse was determined by measuring two dimensions with calipers and calculated using the formula: tumor volume=(length×width^2). […] Drugs were administered intravenously via the tail vein as a single dose of 20 mg/kg body weight of a mouse. […] Mouse weight and tumor sizes were measured at the beginning of study and on the 31st day after the single dose administration.
# The overall growth of tumors was calculated as the mean tumor volume (TV). A percent treatment over control (T/C) was also calculated. The percentage of tumor regression indicates the in vivo activity of each compound.
# OVCAR-3 = assay: In vitro cytotoxicity, MTS assay, OVCAR-3; format: cell-based
# Protocol: (§1) In Table 2, the cytotoxicity (μM of each compound that results in an IC50) provides an indication of the in vitro anti-tumor potency of each compound. This study was used to determine the effect of PEGylation of four-arm PEGylated 7-ethyl-10-hydroxycamptothecin conjugates. […] Cells were incubated with drugs for 72 hours at 37° C. Following incubation, MTS dye was added and formation of a colored product (formazan) was measured at 490 nm.
# [2] = system: human mammary carcinoma (MX-1); assay: Multiple dose efficacy in MX-1 breast tumor xenograft mouse model; format: in vivo, nude mice; conditions: i.v. 5 mg/kg/dose (q2d×6), day 31
# Protocol: The mice were dosed 5 mg/kg/day […] (every 2 days [q×2d]×6). Mouse weight and tumor sizes were monitored up to the 31st day after the first dose administration and subsequent administrations.
# A549 = assay: In vitro cytotoxicity, MTS assay, A549; format: cell-based
# Protocol: as §1
# OVCAR-8 = assay: In vitro cytotoxicity, MTS assay, OVCAR-8; format: cell-based
# Protocol: as §1
# [3] = Maximum tolerated dose (MTD) in nude mice; conditions: mouse, in vivo
# Source text: Mice were monitored for 14 days for mortality and signs of illness and sacrificed when body weight loss was >20% of the pretreatment body weight.
# MIA PaCa-2 = assay: In vitro cytotoxicity, MTS assay, MIA PaCa-2; format: cell-based
# Protocol: as §1
# BxPC-3 = assay: In vitro cytotoxicity, MTS assay, BxPC-3; format: cell-based
# Protocol: as §1
# Colo 205 = assay: In vitro cytotoxicity, MTS assay, Colo 205; format: cell-based
# Protocol: as §1
# [4] = system: MiaPaCa-2 pancreatic tumor cells; assay: Efficacy in MiaPaCa-2 pancreatic tumor xenograft mice; format: in vivo
# SK-0V-3 = assay: In vitro cytotoxicity, MTS assay, SK-0V-3; format: cell-based
# Protocol: as §1
# ASPC-1 = assay: In vitro cytotoxicity, MTS assay, ASPC-1; format: cell-based
# Protocol: as §1
# OV90 = assay: In vitro cytotoxicity, MTS assay, OV90; format: cell-based
# Protocol: as §1
# [5] = system: HT-29 colorectal tumor cells; assay: Efficacy in HT-29 colorectal tumor xenograft mice; conditions: for effect on body weight: during the treatment
# [6] = system: human mammary, MX-1 tumors; assay: Efficacy in small and large MX-1 breast tumor xenografted mice; format: in vivo, nude mice; conditions: for effect on body weight: given at the MTD, for the duration of the treatment
# Protocol: The antitumor efficacy of 4armPEG-Gly-(7-ethyl-10-hydroxycamptothecin) was evaluated in nude mice bearing small (about 100 mm^3) or large (about 450 mm^3) established human mammary, MX-1 tumors. The antitumor therapeutic activities were determined in mice both with a single dose or multiple dose regimens.
# Four of six mice were cured as of day 54. […] All animals were sacrificed by day 20 due to excessive tumor burden.
# PANC-1 = assay: In vitro cytotoxicity, MTS assay, PANC-1; format: cell-based
# Protocol: as §1
# HT29 = assay: In vitro cytotoxicity, MTS assay, HT29; format: cell-based
# Protocol: as §1
# A2780 = assay: In vitro cytotoxicity, MTS assay, A2780; format: cell-based
# Protocol: as §1
# [7] = Stability in saline, aqueous medium and buffer; format: physicochemical; conditions: effect of pH, FIG. 13
# Protocol: PEG-7-ethyl-10-hydroxycamptothecin conjugates show good stability in saline and other aqueous medium for up to 24 hours at room temperature.
# [8] = system: panel of cancer cell lines; assay: In vitro cytotoxicity, panel of cancer cell lines (comparisons); format: cell-based
# Protocol: as §1
# PEG-(7-ethyl-10-hydroxycamptothecin) conjugates containing various amino acids are potent in vitro cytotoxicity against a panel of cancer cell lines as summarized in TABLE 3.
# [9] = Pharmacokinetics in tumor free Balb/C mice; format: in vivo
# Source text: Pharmacokinetic analysis was done using non-compartmental analysis (WinNonlin).
# Pharmacokinetics in rats = format: in vivo; conditions: rats, 3, 10 and 30 mg/kg; conjugate
# [10] = multiple doses i.v. (10 mg/kg/dose for five days; CPT-11 also 40 mg/kg/dose)
# [11] = single dose i.v. (30 mg/kg; CPT-11 also 80 mg/kg)
# [12] = small tumors (about 100 mm^3), multiple doses 20 mg/kg q2d×5, as of day 31
# [13] = small tumors (about 100 mm^3), single dose 20 mg/kg
molecule,measurement,setting,value
"CCc1c2c(nc3ccc(OC(=O)N4CCC(N5CCCCC5)CC4)cc13)-c1cc3c(c(=O)n1C2)COC(=O)[C@]3(O)CC [CPT-11, Irinotecan, reference compound]",Mean TV ± SD,[1],845 ± 50 mm^3
same,Cures,[1]; single dose i.v. 20 mg/kg,0%
same,F/I,[1]; single dose i.v. 20 mg/kg,843%
same,Median TV,[1]; single dose i.v. 20 mg/kg,845 mm^3
same,Regressions,[1]; single dose i.v. 20 mg/kg,0%
same,Survival,[1]; single dose i.v. 20 mg/kg,0%
same,T/C,[1]; single dose i.v. 20 mg/kg,108%
same,TGI,[1]; single dose i.v. 20 mg/kg,26%
same,IC50,"OVCAR-3; Homo sapiens, OVCAR-3, 72 h",20 ± 7.1 µM
same,IC50,"OVCAR-3; Homo sapiens, Table 3, OVCAR-3 (ovarian)",41 µM
same,Chg in TV ± SD,[2],423 ± 243%
same,Cures,[2],0%
same,F/I,[2],594%
same,Mean TV ± SD,[2],632 ± 698 mm^3
same,Median TV,[2],340 mm^3
same,Regressions,[2],0%
same,Survival,[2],0%
same,T/C,[2],43%
same,TGI,[2],44%
same,IC50,"A549; Homo sapiens, A549, 72 h",67 ± 17 µM
same,IC50,"A549; Homo sapiens, Table 3, A549 (lung)",13 µM
same,IC50,"OVCAR-8; Homo sapiens, OVCAR-8, 72 h",9 ± 1.3 µM
same,MTD at 14 days,[3]; multiple dose (q2d×5),40 mg/kg
same,MTD at 14 days,[3]; single dose,80 mg/kg
same,IC50,"MIA PaCa-2; Homo sapiens, MIA PaCa-2, 72 h",67 ± 46 µM
same,IC50,"BxPC-3; Homo sapiens, BXPC-3, 72 h",44 ± 44 µM
same,IC50,"Colo 205; Homo sapiens, COLO 205",20 µM
same,IC50,"Colo 205; Homo sapiens, COLO 205, 72 h",11 ± 1.4 µM
same,TGI,[4]; [10],34%
same,TGI,[4]; [11],0%
same,IC50,SK-0V-3; 72 h,52 ± 8.5 µM
same,IC50,"ASPC-1; Homo sapiens, ASPC1, 72 h",33 ± 1 µM
same,IC50,"OV90; Homo sapiens, OV-90, 72 h",18 ± 4.8 µM
same,effect on body weight,[5],did not significantly decrease the body of weight
same,effect on body weight,[6],did not significantly decrease the body weight
same,tumor growth inhibition,"[6]; large tumors, 10 mg/kg q2d×5","effective TGI until treatment was discontinued, after which tumors regrew"
same,mice in which tumors regrew,"[6]; large tumors, 40 mg/kg q2d×5, after ~5 weeks",four of the six
same,TGI,"[6]; large tumors, multiple doses at MTD 40 mg/kg q2d×5, as of day 13",~95%
same,TGI,"[6]; large tumors, single MTD 80 mg/kg, day 13",70%
same,TGI,[6]; [12],44%
same,TGI,[6]; [13],did not inhibit tumor growth
same,IC50,"PANC-1; Homo sapiens, PANC-1, 72 h",34 ± 16 µM
same,IC50,"HT29; Homo sapiens, HT-29, 72 h",27 ± 8.6 µM
same,IC50,"HT29; Homo sapiens, HT-29, Table 3, HT29 (colorectal)",56 µM
same,IC50,"A2780; Homo sapiens, A2780, 72 h",8 ± 3.5 µM
^40k4arm-PEG-Gly(20)-(7-ethyl-10-hydroxycamptothecin) [Compound 9],Mean TV ± SD,[1],7 ± 9 mm^3
same,Chg in TV ± SD,[1]; single dose i.v. 20 mg/kg,−94 ± 10%
same,Cures,[1]; single dose i.v. 20 mg/kg,100%
same,F/I,[1]; single dose i.v. 20 mg/kg,7%
same,Median TV,[1]; single dose i.v. 20 mg/kg,3 mm^3
same,Regressions,[1]; single dose i.v. 20 mg/kg,100%
same,Survival,[1]; single dose i.v. 20 mg/kg,100%
same,T/C,[1]; single dose i.v. 20 mg/kg,0.3%
same,TGI,"[1]; single dose i.v. 20 mg/kg, 20 mg/kg",99%
same,TGI,"[1]; single dose i.v. 20 mg/kg, listed as 4armPEG-Gly-(7-ethyl-10-hydroxycamptothecin), 20 mg/kg",~100%
same,rate of 7-ethyl-10-hydroxycamptothecin release,[7],increases with increased pH
same,IC50,"OVCAR-3; Table 2, OVCAR-3, 72 hours, Compound 9 in 7-ethyl-10-hydroxycamptothecin equivalents, average ± SD (n = 3)",0.3 ± 0.2 µM
same,Chg in TV ± SD,[2],−91 ± 10%
same,Cures,[2],100%
same,F/I,[2],14%
same,Mean TV ± SD,[2],12 ± 18 mm^3
same,Median TV,[2],6.6 mm^3
same,Regressions,[2],100%
same,Survival,[2],100%
same,T/C,[2],0.8%
same,TGI,[2],99%
same,IC50,"A549; Table 2, A549, 72 hours, Compound 9 in 7-ethyl-10-hydroxycamptothecin equivalents, average ± SD (n = 3)",2.7 ± 0.4 µM
same,IC50,"OVCAR-8; Table 2, OVCAR-8, 72 hours, Compound 9 in 7-ethyl-10-hydroxycamptothecin equivalents, average ± SD (n = 3)",0.5 ± 0.1 µM
same,IC50,"MIA PaCa-2; Table 2, MIA PaCa-2, 72 hours, Compound 9 in 7-ethyl-10-hydroxycamptothecin equivalents, no SD = average of two replicates",0.09 µM
same,IC50,"BxPC-3; Table 2, BxPC-3, 72 hours, Compound 9 in 7-ethyl-10-hydroxycamptothecin equivalents, average ± SD (n = 3)",0.24 ± 0.04 µM
same,IC50,"Colo 205; Table 2, Colo 205, 72 hours, Compound 9 in 7-ethyl-10-hydroxycamptothecin equivalents, average ± SD (n = 3)",1 ± 0.6 µM
same,TGI,[4]; [10],95%
same,TGI,[4]; [11],71%
same,IC50,"SK-0V-3; Table 2, SK-0V-3, 72 hours, Compound 9 in 7-ethyl-10-hydroxycamptothecin equivalents, average ± SD (n = 3)",0.9 ± 0.01 µM
same,IC50,"ASPC-1; Table 2, ASPC-1, 72 hours, Compound 9 in 7-ethyl-10-hydroxycamptothecin equivalents, average ± SD (n = 3)",1.6 ± 1.1 µM
same,in vitro inhibition compared with CPT-11,[8]; all tested tumor cells,much higher in vitro inhibition
same,in vitro inhibition compared with native 7-ethyl-10-hydroxycamptothecin,[8]; tested tumor cells except for HT29,significantly higher in vitro inhibition
same,terminal elimination half-life,[9]; for 7-ethyl-10-hydroxycamptothecin,18 to 26 h
same,terminal elimination half-life,[9]; for the conjugate,18 to 22 h
same,elimination half life,Pharmacokinetics in rats,12 to 18 h
same,IC50,"OV90; Table 2, OV90, 72 hours, Compound 9 in 7-ethyl-10-hydroxycamptothecin equivalents, average ± SD (n = 3)",0.6 ± 0.7 µM
same,effect on body weight,[5],did not significantly decrease the body of weight
same,therapeutic efficacy,"[5]; i.v. 10 mg/kg/dose for five days, days 4-22",significant therapeutic efficacy compared to that of CPT-11
same,anti-tumor activity,"[5]; single dose i.v. 30 mg/kg, days 4-22",significant anti-tumor activity
same,effect on body weight,[6],did not significantly decrease the body weight
same,TGI,"[6]; large tumors (about 450 mm^3), single MTD 30 mg/kg",96%
same,mice cured,"[6]; large tumors, multiple doses 10 mg/kg q2d×5, as of day 54",five of six
same,TGI,"[6]; large tumors, multiple doses at MTD 10 mg/kg q2d×5",96%
same,mice cured,"[6]; large tumors, single MTD 30 mg/kg, as of day 54",Four of six
same,TGI,[6]; [12],96%
same,TGI,[6]; [13],100%
same,IC50,"PANC-1; Table 2, PANC-1, 72 hours, Compound 9 in 7-ethyl-10-hydroxycamptothecin equivalents, average ± SD (n = 3)",0.67 ± 0.14 µM
same,IC50,"HT29; Table 2, HT29, 72 hours, Compound 9 in 7-ethyl-10-hydroxycamptothecin equivalents, average ± SD (n = 3)",0.5 ± 0.3 µM
same,IC50,"A2780; Table 2, A2780, 72 hours, Compound 9 in 7-ethyl-10-hydroxycamptothecin equivalents, average ± SD (n = 3)",0.2 ± 0.2 µM

# Reference: patent US8299089B2, “Multi-arm polymeric conjugates of 7-ethyl-10-hydroxycamptothecin for treatment of breast, colorectal, pancreatic, ovarian and lung cancers” (priority 2006, dated 2012)
